According to PMC7089965 (Frontiers in Microbiology, 2020):
≈ marks a conversion by molar mass, not a printed value. Where two headings read alike, the source gives them in different places. Where a SMILES comes first, the peptide text is derived from it. [ ]: non-standard residue; d: D form. Nspe = C[C@H](NCC(=O)O)c1ccccc1; NHexGly = CCCCCCNCC(=O)O; Nlys = NCCCCNCC(=O)O

Columns and labels:
M. bovis BCG = settings: broth microdilution, 10^6 CFU/mL, 7 days, 37°C, OD595 and visual
[1] = system: MDR clinical isolate M. tuberculosis CSU87; settings: broth microdilution, 10^6 CFU/mL, 7 days, 37°C, OD595 and visual
M. tuberculosis CSU87 = settings: 7 days, CFU enumeration, three independent experiments

CCCCCCNCC(=O)N(CC(=O)N(CCCCN)CC(N)=O)[C@@H](C)c1ccccc1 [BM 1]
MIC BCG (M. bovis BCG): 16 to 32 µg/mL

CCCCCCNCC(=O)N(CC(=O)N(CCCCN)CC(=O)N(CCCCCC)CC(=O)N(CC(=O)N(CCCCN)CC(N)=O)[C@@H](C)c1ccccc1)[C@@H](C)c1ccccc1 [BM 2] (H-[NHexGly][Nspe][Nlys][NHexGly][Nspe][Nlys]-NH2)
MIC CSU87 [1]: 4 µg/mL (≈ 4.55 µM)
killing of CSU87 (M. tuberculosis CSU87; 2 × MIC (8 mg/L)): > 99%
killing of CSU87 (M. tuberculosis CSU87; 4 × MIC (16 mg/L)): 99.9%
MIC BCG (M. bovis BCG): 2 to 4 µg/mL

CCCCCCNCC(=O)N(CC(=O)N(CCCCN)CC(=O)N(CCCCCC)CC(=O)N(CC(=O)N(CCCCN)CC(=O)N(CCCCCC)CC(=O)N(CC(=O)N(CCCCN)CC(N)=O)[C@@H](C)c1ccccc1)[C@@H](C)c1ccccc1)[C@@H](C)c1ccccc1 [BM 3] (H-[NHexGly][Nspe][Nlys][NHexGly][Nspe][Nlys][NHexGly][Nspe][Nlys]-NH2)
MIC CSU87 [1]: 16 µg/mL (≈ 12.2 µM)
MIC BCG (M. bovis BCG): 4 to 8 µg/mL
